Assays:
IgG antibodies = experiment: Microarray, serum IgG binding to printed CAA structures, controlled human infection samples; settings: three individual sera, FIG. 14
Excerpt: (§1) Immunopurified native schistosome CAA, synthetic di-, tetra-, hexa-, and octasaccharides with appropriate positive and negative controls were printed in triplicates onto epoxilane coated glass slides (Nexterion Slide E, Schott 1066643) with a MicroGrid robot (BioRobotics). See general methodology in (de Boer, Hokke et al. 2007).
(§2) Microarrays with fitted silicone gaskets (64 samples/slide) were reconstituted in 1×PBS and blocked for minimum one hour (PBS, 2% bovine serum albumin (Sigma-Aldrich A3059) with 50 mM ethanolamine (>99.5%, Sigma-Aldrich 411000)) on shaker. Each array washed in PBS Tween 0.05%, PBS and 30 ul serum sample 1:100 in buffer/array added for 1 hour incubation at room temperature on shaker. Arrays were then washed (as above) and 1:1000 detection antibodies added (goat anti-human IgG-Cy-3, Sigma-Aldrich C2571; goat anti-human IgM-AF647, Invitrogen, A21249) for 30 min room temperature incubation on shaker. Finally, slides were washed as above with an additional wash in milli-Q before they were spun dry and scanned (Agilent Scan Control™ 2006). […]
(§3) Microarray scan images were obtained through Agilent Feature Extraction 10.7.3.1 and imported into GenePixPro vs7. Spot morphology quality was inspected and median fluorescence intensity (MFI) values obtained per nanodot with an average of a triplicate per target used for analyses. […]

IgM antibodies = experiment: Microarray, serum IgM binding to printed CAA structures, controlled human infection samples; settings: individual level, infection with 10, 20, 30 cercariae; FIG. 3-5
Excerpt: as §1
Microarrays with fitted silicone gaskets (64 samples/slide) were reconstituted in 1×PBS and blocked for minimum one hour (PBS, 2% bovine serum albumin (Sigma-Aldrich A3059) with 50 mM ethanolamine (>99.5%, Sigma-Aldrich 411000)) on shaker. Each array washed in PBS Tween 0.05%, PBS and 30 ul serum sample 1:100 in buffer/array added for 1 hour incubation at room temperature on shaker. Arrays were then washed (as above) and 1:1000 detection antibodies added (goat anti-human IgG-Cy-3, Sigma-Aldrich C2571; goat anti-human IgM-AF647, Invitrogen, A21249) for 30 min room temperature incubation on shaker. Finally, slides were washed as above with an additional wash in milli-Q before they were spun dry and scanned (Agilent Scan Control™ 2006). For nasosorption samples, they were incubated as above with the following changes. Samples were eluted in PBS 1% BSA 0.05% Triton-X and incubated as 1:2 dilution. For detection goat anti-human IgA-Dylight 650 (Novus NBP 1-75754) was used in 500×dilution.
(§4) Microarray scan images were obtained through Agilent Feature Extraction 10.7.3.1 and imported into GenePixPro vs7. Spot morphology quality was inspected and median fluorescence intensity (MFI) values obtained per nanodot with an average of a triplicate per target used for analyses. Further data processing was done in Microsoft Excel and graphs were generated using GraphPad Prism 9.3.1.

IgA antibodies [1] = experiment: Microarray, IgA binding in nasosorption samples, controlled human infection; settings: 20 cercariae, baseline and 8 weeks post infection; FIG. 10
Excerpt: as §1, §2, §3

IgA antibodies [2] = experiment: Microarray, IgA binding in serum samples, controlled human infection; settings: 20 cercariae, n=7, eight weeks post infection; FIG. 9
Excerpt: as §1
Microarrays with fitted silicone gaskets (64 samples/slide) were reconstituted in 1×PBS and blocked for minimum one hour (PBS, 2% bovine serum albumin (Sigma-Aldrich A3059) with 50 mM ethanolamine (>99.5%, Sigma-Aldrich 411000)) on shaker. Each array washed in PBS Tween 0.05%, PBS and 30 ul serum sample 1:100 in buffer/array added for 1 hour incubation at room temperature on shaker. […] Finally, slides were washed as above with an additional wash in milli-Q before they were spun dry and scanned (Agilent Scan Control™ 2006). […] Samples were eluted in PBS 1% BSA 0.05% Triton-X and incubated as 1:2 dilution. […]
as §4

Row | Molecule | IgM response pattern compared with native CAA (IgM antibodies) | IgM background at baseline (specificity) (IgM antibodies) | other results
1 | 6-aminohexyl 2-acetamido-2-deoxy-3-O-(3-D-glucoronic acid)-6-O-(2-acetamido-2-deoxy-3-O-(3-D-glucuronic acid)-6-O-(2-acetamido-2-deoxy-3-O-(β-D-glucuronic acid)-6-O-(2-acetamido-2-deoxy-3-O-(3-D-glucuronic acid)-6-O-(2-acetamido-2-deoxy-3-O-(3-D-glucuronic acid)-β-D-galactopyranose)-β-D-galactopyranose)-3-D-galactopyranose-β-D-galactopyranose [CAA decasaccharide] |  |  | IgG response at week 8 after infection (IgG antibodies; 20 male S. mansoni cercariae): equal or stronger than to shorter CAA fragments; IgG pre-infection response (IgG antibodies; prior to infection): negligible
2 | CC(=O)NC1C(O[C@@H]2OC(C(=O)O)[C@@H](O)C(O)C2O)[C@@H](O)C(CO)O[C@H]1OCCCCCCN (stereo partly drawn) [disaccharide, 6-aminohexyl 2-acetamido-2-deoxy-3-O-(β-D-glucoronic acid)-β-D-galactopyranose] | not representative of CAA |  | 
3 | CC(=O)NC1C(O[C@@H]2OC(C(=O)O)[C@@H](O)C(O)C2O)[C@@H](O)C(CO)O[C@H]1OCC1O[C@@H](OCC2O[C@@H](OCC3O[C@@H](OCCCCCCN)C(NC(C)=O)C(O[C@@H]4OC(C(=O)O)[C@@H](O)C(O)C4O)[C@H]3O)C(NC(C)=O)C(O[C@@H]3OC(C(=O)O)[C@@H](O)C(O)C3O)[C@H]2O)C(NC(C)=O)C(O[C@@H]2OC(C(=O)O)[C@@H](O)C(O)C2O)[C@H]1O (some centres unmarked) [octasaccharide] |  | improves further | detection of specific IgA in nasosorption samples (IgA antibodies [1]): detectable; detection of specific IgA in serum (IgA antibodies [2]): detection
4 | CC(=O)NC1C(O[C@@H]2OC(C(=O)O)[C@@H](O)C(O)C2O)[C@@H](O)C(CO)O[C@H]1OCC1O[C@@H](OCCCCCCN)C(NC(C)=O)C(O[C@@H]2OC(C(=O)O)[C@@H](O)C(O)C2O)[C@H]1O (stereo partly drawn) [tetrasaccharide, 6-aminohexyl 2-acetamido-2-deoxy-3-O-(β-D-glucoronic acid)-6-O-(2-acetamido-2-deoxy-3-O-(β-D-glucuronic acid)-β-D-galactopyranose)-β-D-galactopyranose] | a dynamic range resembling native material is starting to appear | too high | 
